What follows are compounds tested against T1, Dimer of Gag-Pol polyprotein [489-587] (Human immunodeficiency virus 1, UniProt P12497) (assay: Protease Inhibition Assay). Details: pH 6.2; 37 °C.
T1 construct: 489-587
Method: Inhibition constants were determined by a fluorometric assay with the fluorogenic substrate Arg-Glu(EDANS)-Ser-Gln-Asn-Tyr-Pro-Ile-Val-Lys(DABCYL)-Arg. The data were analyzed with the mathematical model for tight-binding inhibitors in which the concentration of inhibitor is less than or equal to the enzyme concentration. The data were fitted by nonlinear regression analysis to the equation with program Enzfitter (version 1.05).
CSC[C@H](NC(=O)COc1cccc2cnccc12)C(=O)N[C@@H](Cc1ccccc1)[C@H](O)C(=O)N1CSC(C)(C)[C@H]1C(=O)NC(C)(C)C gave a Ki of 2.3 pM. In the case of CSC[C@H](NC(=O)COc1cccc2cnccc12)C(=O)N[C@@H](Cc1ccccc1)[C@H](O)C(=O)N1CSC[C@H]1C(=O)NC(C)(C)C [Kynostatin 272], the Ki is reported as 5.5 pM. CC(C)(C)NC(=O)[C@H]1N(C(=O)[C@@H](O)[C@H](Cc2ccccc2)NC(=O)[C@H](CC(N)=O)NC(=O)COc2cccc3ccccc23)CSC1(C)C [Noa-Asn-Apns-Dmt-NH-tBu] was tested, and the Ki was 6.8 pM.

Reference: BindingDB's records for doi:10.1128/AAC.37.4.810 (National Cancer Institute-Bethesda, 1993)
